Measured values reported in PubChem BioAssay AID328 (DTP/NCI, 2004).
Several values for one entry are separate records, joined by “and”; a condition that tells them apart may be missing. Equal values may be shown once. Toxic doses and inconclusive results are not listed. Positions of bridges follow the written chain, without caps; N, C: chain ends. Non-standard residues stand in square brackets, D forms with d. Residues, ends and D or L forms follow the SMILES beside them. Aib = CC(C)(N)C(=O)O

System: BDF1 mice, P388 leukemia ip, median survival T/C
Test: NCI In Vivo Anticancer Drug Screen. Data for tumor model P388 Leukemia (intraperitoneal) in B6D2F1 (BDF1) mice
Conditions: endpoint: median survival time, higher = longer survival
Method in brief: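 Steps: implant the tumour, treat one group with compound and another with vehicle, record survival, then divide treated by control.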

[1] = dose: 50.0 mg/kg/injection, schedule: Q04DX003 (ip), vehicle: Klucel (hydroxypropylcellulose) (HPC)
[2] = dose: 50.0 mg/kg/injection, schedule: Q01DX009 (ip), vehicle: saline with Tween-80
[3] = dose: 100.0 mg/kg/injection, schedule: Q01DX009 (ip), vehicle: saline with Tween-80
[4] = dose: 100.0 mg/kg/injection, schedule: Q04DX003 (ip), vehicle: saline with Tween-80
[5] = dose: 200.0 mg/kg/injection, schedule: Q01DX009 (ip), vehicle: saline with Tween-80
[6] = dose: 200.0 mg/kg/injection, schedule: Q04DX003 (ip), vehicle: saline with Tween-80
[7] = dose: 400.0 mg/kg/injection, schedule: Q04DX003 (ip), vehicle: saline with Tween-80
[8] = dose: 100.0 mg/kg/injection, schedule: Q01DX001 (ip), vehicle: saline with Tween-80
[9] = dose: 200.0 mg/kg/injection, schedule: Q01DX001 (ip), vehicle: saline with Tween-80
[10] = dose: 12.5 mg/kg/injection, schedule: Q01DX009 (ip), vehicle: saline
[11] = dose: 50.0 mg/kg/injection, schedule: Q01DX009 (ip), vehicle: saline
[12] = dose: 50.0 mg/kg/injection, schedule: Q04DX003 (ip), vehicle: saline
[13] = dose: 100.0 mg/kg/injection, schedule: Q04DX003 (ip), vehicle: saline
[14] = dose: 25.0 mg/kg/injection, schedule: Q01DX009 (ip), vehicle: saline

CCCCCCCCCCSCCSCCSCCCCCCCCCC
T/C (dose: 25.0 mg/kg/injection, schedule: Q01DX001 (ip), vehicle: Klucel (hydroxypropylcellulose) (HPC)): 100 % of control
T/C (dose: 50.0 mg/kg/injection, schedule: Q01DX001 (ip), vehicle: Klucel (hydroxypropylcellulose) (HPC)): 100 % of control
T/C (dose: 100.0 mg/kg/injection, schedule: Q01DX001 (ip), vehicle: Klucel (hydroxypropylcellulose) (HPC)): 100 % of control

O=C(CCl)c1ccc[nH]1
T/C (dose: 25.0 mg/kg/injection, schedule: Q04DX003 (ip), vehicle: Klucel (hydroxypropylcellulose) (HPC)): 95 % of control
T/C [1]: 91 % of control

COC(=O)C(CSCSC)NC(=O)/C=C/c1ccccc1C (stereo not given)
T/C [2]: 101 % of control
T/C [3]: 98 % of control
T/C [4]: 104 % of control
T/C [5]: 101 % of control
T/C [6]: 91 % of control
T/C (dose: 400.0 mg/kg/injection, schedule: Q01DX009 (ip), vehicle: saline with Tween-80): 114 % of control
T/C [7]: 104 % of control

CN(C)c1ccc(/C=C\c2ccnc3ccc(-c4ccccc4)cc23)cc1
T/C [2]: 94 % of control
T/C [3]: 94 % of control
T/C [5]: 94 % of control

COc1cc2cc(c1Cl)N(C)C(=O)CC(OC(C)=O)C1(C)OC1C(C)C1CC(O)(NC(=O)O1)C(OC)C=C/C=C(\C)C2 (stereo not given)
T/C (dose: 0.2 micrograms/kg/injection, schedule: Q01DX009 (ip), vehicle: saline + alcohol): 90 % of control
T/C (dose: 0.4 micrograms/kg/injection, schedule: Q01DX009 (ip), vehicle: saline + alcohol): 95 % of control
T/C (dose: 0.8 micrograms/kg/injection, schedule: Q01DX009 (ip), vehicle: saline + alcohol): 95 % of control and 110 % of control
T/C (dose: 1.5 micrograms/kg/injection, schedule: Q01DX009 (ip), vehicle: saline + alcohol): 150 % of control
T/C (dose: 1.6 micrograms/kg/injection, schedule: Q01DX009 (ip), vehicle: saline + alcohol): 100 % of control
T/C (dose: 3.1 micrograms/kg/injection, schedule: Q01DX009 (ip), vehicle: saline + alcohol): 110 % of control
T/C (dose: 6.2 micrograms/kg/injection, schedule: Q01DX009 (ip), vehicle: saline + alcohol): 150 % of control
T/C (dose: 12.5 micrograms/kg/injection, schedule: Q01DX009 (ip), vehicle: saline + alcohol): 158 % of control
T/C (dose: 25.0 micrograms/kg/injection, schedule: Q01DX009 (ip), vehicle: saline + alcohol): 170 % of control and 173 % of control
T/C (dose: 50.0 micrograms/kg/injection, schedule: Q01DX009 (ip), vehicle: saline + alcohol): 183 % of control (2×) and 190 % of control
T/C (dose: 100.0 micrograms/kg/injection, schedule: Q01DX009 (ip), vehicle: saline + alcohol): 230 % of control and 204 % of control
T/C (dose: 200.0 micrograms/kg/injection, schedule: Q01DX009 (ip), vehicle: saline + alcohol): 100 % of control

Cn1nnnc1N/N=C(\Br)c1ccccc1
T/C (dose: 25.0 mg/kg/injection, schedule: Q01DX009 (ip), vehicle: saline with Tween-80): 110 % of control
T/C [2]: 105 % of control
T/C [3]: 120 % of control
T/C [4]: 104 % of control
T/C [5]: 120 % of control
T/C [6]: 95 % of control
T/C [7]: 90 % of control

Cc1ccc(N=Cc2ccccc2O)cc1Cl
T/C [8]: 109 % of control
T/C [9]: 100 % of control
T/C (dose: 400.0 mg/kg/injection, schedule: Q01DX001 (ip), vehicle: saline with Tween-80): 100 % of control

O=C(NC(=O)c1c(F)cccc1F)Nc1ncc(Cl)cc1Cl
T/C [2]: 90 % of control
T/C [3]: 100 % of control
T/C [5]: 90 % of control

CN1/C(=C/C=C/N=C(C#N)C#N)C(C)(C)c2ccccc21
T/C [2]: 104 % of control
T/C [3]: 96 % of control
T/C [5]: 96 % of control

CN1OCC2CCCC(c3ccccc3)C21 (stereo not given)
T/C [1]: 100 % of control
T/C (dose: 100.0 mg/kg/injection, schedule: Q04DX003 (ip), vehicle: Klucel (hydroxypropylcellulose) (HPC)): 100 % of control
T/C (dose: 200.0 mg/kg/injection, schedule: Q04DX003 (ip), vehicle: Klucel (hydroxypropylcellulose) (HPC)): 100 % of control

CC1=CC(=Nc2ccc(N(C)C)cc2)C=CC1=O
T/C (dose: 3.13 mg/kg/injection, schedule: Q01DX009 (ip), vehicle: suspension in saline): 98 % of control
T/C (dose: 6.25 mg/kg/injection, schedule: Q01DX009 (ip), vehicle: suspension in saline): 117 % of control
T/C (dose: 12.5 mg/kg/injection, schedule: Q01DX009 (ip), vehicle: suspension in saline): 123 % of control
T/C (dose: 25.0 mg/kg/injection, schedule: Q01DX009 (ip), vehicle: suspension in saline): 117 % of control

Cc1cccc(NC(=O)c2ccccc2Cl)c1C
T/C [4]: 109 % of control
T/C [6]: 90 % of control
T/C [7]: 90 % of control

COc1ccc(C)cc1NN
T/C [10]: 100 % of control
T/C [11]: 100 % of control
T/C [12]: 109 % of control
T/C [13]: 104 % of control
T/C (dose: 200.0 mg/kg/injection, schedule: Q04DX003 (ip), vehicle: saline): 95 % of control

CSc1nc(Cl)c(Cl)c(C(F)(F)F)n1
T/C (dose: 6.25 mg/kg/injection, schedule: Q01DX005 (ip), vehicle: saline): 110 % of control
T/C (dose: 12.5 mg/kg/injection, schedule: Q01DX005 (ip), vehicle: saline): 109 % of control
T/C (dose: 25.0 mg/kg/injection, schedule: Q01DX005 (ip), vehicle: saline): 115 % of control

CC(=O)c1ccc(Oc2ccc(/C(C)=N\N=C(N)N)cc2)cc1
T/C (dose: 6.25 mg/kg/injection, schedule: Q01DX009 (ip), vehicle: saline): 111 % of control
T/C [10]: 112 % of control and 117 % of control
T/C (dose: 16.0 mg/kg/injection, schedule: Q01DX009 (ip), vehicle: saline): 116 % of control
T/C [14]: 110 % of control

CC(C)CC1NC(=O)CNC(=O)C(C)(C)NC(=O)C(C(C)C)NC(=O)C(C)(C)NC(=O)C(CCC(N)=O)NC(=O)C(C)NC(=O)C(C)(C)NC(=O)C(C)NC(=O)C(C)(C)NC(=O)C2CCCN2C(=O)CCC(C(=O)NC(CCC(N)=O)C(=O)O)NC(=O)C(C)(C)NC(=O)C(C)(C)NC(=O)C(C(C)C)NC(=O)C2CCCN2C(=O)C(C)(C)NC1=O (stereo not given) (P[Aib]A[Aib]AQ[Aib]V[Aib]GL[Aib]PV[Aib][Aib]EQ-OH; lactam N-17; configuration not given here)
T/C (dose: 1.25 mg/kg/injection, schedule: Q01DX009 (ip), vehicle: water): 118 % of control
T/C (dose: 2.5 mg/kg/injection, schedule: Q01DX009 (ip), vehicle: water): 102 % of control

CCCCN(C)c1ncnc2[nH]ncc12
T/C [14]: 100 % of control
T/C (dose: 25.0 mg/kg/injection, schedule: Q04DX003 (ip), vehicle: saline): 95 % of control
T/C [11]: 109 % of control
T/C [12]: 95 % of control
T/C [13]: 91 % of control

CCNC(=O)N(CC(N)=O)c1ncc([N+](=O)[O-])s1
T/C (dose: 12.5 mg/kg/injection, schedule: Q01DX001 (ip), vehicle: saline with Tween-80): 98 % of control
T/C (dose: 25.0 mg/kg/injection, schedule: Q01DX001 (ip), vehicle: saline with Tween-80): 106 % of control
T/C (dose: 50.0 mg/kg/injection, schedule: Q01DX001 (ip), vehicle: saline with Tween-80): 98 % of control
T/C (dose: 50.0 mg/kg/injection, schedule: Q01DX005 (ip), vehicle: saline with Tween-80): 94 % of control
T/C [8]: 93 % of control
T/C (dose: 100.0 mg/kg/injection, schedule: Q01DX005 (ip), vehicle: saline with Tween-80): 86 % of control
T/C [9]: 98 % of control
T/C (dose: 200.0 mg/kg/injection, schedule: Q01DX005 (ip), vehicle: saline with Tween-80): 96 % of control
